Results on 35 molecules are retold here after US6960614B2, “Oxygenated esters of 4-lodo phenylamino benzhydroxamic acids” (Warner-Lambert Company, priority 2000, dated 2005).

For one data set, the system named is MEK. Put plainly: Cellular Assay for Measuring MEK Inhibition (inhibition of ERK phosphorylation in C26 cells, Western blot). Type of data set: cell-based, murine. The conditions noted are these: for pIC50: inhibition of ERK phosphorylation in murine colon 26 (C26) carcinoma cells, determined graphically from dose response curve; for % Inhibition @ 0.1 μM / % Inhibition @ 1 μM: ERK phosphorylation in C26 cells. The gist of the method: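 Exponentially growing murine colon 26 (C26) carcinoma cells treated with varying compound concentrations at 37° C, then lysed. Western blot with antibody to dually phosphorylated ERK1/ERK2; blots stripped and re-probed for total ERK1/ERK2.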
Background: Immunoblotting shows a protein as a band on a membrane.

SMILES strings stand for the structures. pIC50: −log10 of the molar value.

In the case of `O=C(NOC[C@@H]1C[C@H]1CO)c1ccc(F)c(F)c1Nc1ccc(I)cc1F` (relative stereo) [Example 74, 3,4-Difluoro-2-(2-fluoro-4-iodo-phenylamino)-N-[trans-(2-hydroxymethyl-cyclopropylmethoxy)]-benzamide], the melting point (in general, the temperature, or range, at which the solid turns liquid) was in the range of 128.5 to 128.7 °C. Also, the pIC50 (usually the negative decadic logarithm of the IC50, by convention in mol/L) in the data set with MEK is 7.74.
`O=C(NOC[C@@H]1C[C@H]1CO)c1cc(Cl)c(F)c(F)c1Nc1ccc(I)cc1F` (relative stereo) [Example 75, 5-Chloro-3,4-difluoro-2-(2-fluoro-4-iodo-phenylamino)-N-[trans-(2-hydroxymethyl-cyclopropylmethoxy)]-benzamide] displayed a melting point of 152.5 to 153.1 °C. The negative logarithm of the IC50 (pIC50) in the data set with MEK was 7.38.
In the same order, the values of `Cc1cc(I)ccc1Nc1c(C(=O)NOCCO)cc(F)c(F)c1F` [Example 1, 3,4,5-Trifluoro-N-(2-hydroxy-ethoxy)-2-(4-iodo-2-methyl-phenylamino)-benzamide] are 205 to 207 °C (dec.) and 8.10.
Consider `Cc1cc(I)ccc1Nc1c(C(=O)NOCCO)ccc(F)c1F` [Example 2, 3,4-Difluoro-N-(2-hydroxy-ethoxy)-2-(4-iodo-2-methyl-phenylamino)-benzamide], for which the melting point lay within 181 to 183 °C. The negative-log IC50 (pIC50) in the data set with MEK is 8.52.
In the same order, the values of `O=C(NOCCO)c1ccc(F)c(F)c1Nc1ccc(I)cc1Cl` [Example 3, 2-(2-Chloro-4-iodo-phenylamino)-3,4-difluoro-N-(2-hydroxy-ethoxy)-benzamide] are 173 to 175 °C and 8.40.
The corresponding values for `O=C(NOCCO)c1cc(F)c(F)c(F)c1Nc1ccc(I)cc1Cl` [Example 6, 2-(2-Chloro-4-iodo-phenylamino)-3,4,5-trifluoro-N-(2-hydroxy-ethoxy)-benzamide] are 183 to 184.5 °C and 8.30.
As to `O=C(NOCCO)c1cc(Cl)c(F)c(F)c1Nc1ccc(I)cc1` [Example 7, 5-Chloro-3,4-difluoro-N-(2-hydroxy-ethoxy)-2-(4-iodo-phenylamino)-benzamide], the melting point is 174 to 176 °C. Besides, the negative logarithm of the IC50 (pIC50) in the data set with MEK is 8.30.
As for `O=C(NOCCO)c1ccc(F)cc1Nc1ccc(I)cc1F` [Example 8, 4-Fluoro-2-(2-fluoro-4-iodo-phenylamino)-N-(2-hydroxy-ethoxy)-benzamide], the melting point is 117 to 119 °C. For the same molecule, the pIC50 in the data set with MEK was 9.52.
In the same order, the values of `O=C(NOCCO)c1cc(Cl)c(F)c(F)c1Nc1ccc(I)cc1F` [Example 10, 5-Chloro-3,4-difluoro-2-(2-fluoro-4-iodo-phenylamino)-N-(2-hydroxy-ethoxy)-benzamide] are 180 to 180.5 °C and 9.52.
The corresponding values for `O=C(NOCCO)c1cc(Br)c(F)c(F)c1Nc1ccc(I)cc1F` [Example 11, 5-Bromo-3,4-difluoro-2-(2-fluoro-4-iodo-phenylamino)-N-(2-hydroxy-ethoxy)-benzamide] are 189 to 190 °C and 8.70.
In the same order, the values of `Cc1cc(I)ccc1Nc1cc(F)c(F)cc1C(=O)NOCCO` [Example 12, 4,5-Difluoro-N-(2-hydroxy-ethoxy)-2-(4-iodo-2-methyl-phenylamino)-benzamide] are 151.2 to 152.5 °C and 7.66.
As for `Cc1cc(I)ccc1Nc1c(C(=O)NOCCO)cc(Br)c(F)c1F` [Example 13, 5-Bromo-3,4-difluoro-N-(2-hydroxy-ethoxy)-2-(4-iodo-2-methyl-phenylamino)-benzamide], the melting point was 208.2 to 209.6 °C. In the data set with MEK, this molecule gave a pIC50 of 8.70.
In the same order, the values of `O=C(NOCCO)c1cc(Br)c(F)c(F)c1Nc1ccc(I)cc1Cl` [Example 14, 5-Bromo-2-(2-chloro-4-iodo-phenylamino)-3,4-difluoro-N-(2-hydroxy-ethoxy)-benzamide] are 190.2 to 200.2 °C and 8.70.
Turning to `Cc1cc(I)ccc1Nc1c(C(=O)NOCCO)cc(Cl)c(F)c1F` [Example 15], the melting point is 199.1 to 200.8 °C. Besides, in the data set on MEK, the pIC50 was 9.00.
The corresponding values for `Cc1cc(I)ccc1Nc1cc(F)c(Br)cc1C(=O)NOCCO` [Example 16, 5-Bromo-4-fluoro-N-(2-hydroxy-ethoxy)-2-(4-iodo-2-methyl-phenylamino)-benzamide] are 154.4 to 156.4 °C and 7.70.
In turn, `O=C(NOCCO)c1cc(F)c(F)cc1Nc1ccc(I)cc1F` [Example 18, 4,5-Difluoro-2-(2-fluoro-4-iodo-phenylamino)-N-(2-hydroxy-ethoxy)-benzamide] registered a melting point of 189.6 to 190.6 °C.
Molecule `O=C(NOCCO)c1cc(Br)c(F)cc1Nc1ccc(I)cc1F` [Example 19] came in with a melting point of 173 to 175 °C. In the data set on MEK, this molecule gave a pIC50 of 9.00.
In the same order, the values of `O=C(NOCCO)c1cc(Cl)c(F)c(F)c1Nc1ccc(I)cc1Cl` [Example 20, 5-Chloro-2-(2-chloro-4-iodo-phenylamino)-3,4-difluoro-N-(2-hydroxy-ethoxy)-benzamide] are 178 to 181 °C and 8.52.
In the same order, the values of `O=C(NOCCO)c1cc(F)c(F)c(F)c1Nc1ccc(I)cc1F` [Example 21, 3,4,5-Trifluoro-2-(2-fluoro-4-iodo-phenylamino)-N-(2-hydroxy-ethoxy)-benzamide] are 185 to 187 °C and 8.74.
For the molecule `O=C(NOCCO)c1ccc(F)c(F)c1Nc1ccc(Br)cc1F` [Example 22, 2-(4-Bromo-2-fluoro-phenylamino)-3,4-difluoro-N-(2-hydroxy-ethoxy)-benzamide], the melting point is 146.1 to 146.4 °C. Further, the negative-log IC50 (pIC50) in the data set with MEK is 8.11.
In the same order, the values of `O=C(NOCCO)c1cc(F)c(F)cc1Nc1ccc(Br)cc1F` [Example 23, 2-(4-Bromo-2-fluoro-phenylamino)-4,5-difluoro-N-(2-hydroxy-ethoxy)-benzamide] are 190.8 to 192.5 °C and 7.49.
The corresponding values for `O=C(NOCCO)c1ccc(F)c(F)c1Nc1ccc(Cl)cc1F` [Example 24, 2-(4-Chloro-2-fluoro-phenylamino)-3,4-difluoro-N-(2-hydroxy-ethoxy)-benzamide] are 142.1 to 142.5 °C and 7.59.
On to `O=C(NOCCO)c1ccc(F)c(F)c1Nc1ccccc1F` [Example 25, 3,4-Difluoro-2-(2-fluoro-phenylamino)-N-(2-hydroxy-ethoxy)-benzamide], for which the melting point lay within 129.6 to 130.4 °C. For the same molecule, the negative logarithm of the IC50 (pIC50) in the data set on MEK is 7.28.
With `O=C(NOCCCO)c1cc(Br)c(F)c(F)c1Nc1ccc(I)cc1Cl` [Example 31, 5-Bromo-2-(2-chloro-4-iodo-phenylamino)-3,4-difluoro-N-(3-hydroxy-propoxy)-benzamide], the melting point was 120 to 121 °C.
On the same count and under the same terms, then `C=COCCONC(=O)c1ccc(F)c(F)c1Nc1ccc(I)cc1Cl` [Example 56, 2-(2-Chloro-4-iodo-phenylamino)-3,4-difluoro-N-(2-vinyloxy-ethoxy)-benzamide], with 141.5 to 143 °C.
For the molecule `C=COCCONC(=O)c1cc(Cl)c(F)c(F)c1Nc1ccc(I)cc1F` [Example 60, 5-Chloro-3,4-difluoro-2-(2-fluoro-4-iodo-phenylamino)-N-(2-vinyloxy-ethoxy)-benzamide], the melting point lay in the range of 119 to 120 °C.
Molecule `O=C(NOCC(O)CO)c1cc(Br)c(F)c(F)c1Nc1ccccc1F` (centres unmarked) [Example 84, 5-Bromo-N-(2,3-dihydroxy-propoxy)-3,4-difluoro-2-(2-fluoro-phenylamino)-benzamide] registered a melting point of 143.5 to 144.5 °C.
`COCC(O)CONC(=O)c1ccc(F)c(F)c1Nc1ccc(Br)cc1F` (centres unmarked) [Example 228, 2-(4-Bromo-2-fluoro-phenylamino)-3,4-difluoro-N-(2-hydroxy-3-methoxy-propoxy)-benzamide]: in the data set on MEK, the “% Inhibition @ 0.1 μM” value is listed as 48.6% and the “% Inhibition @ 1 μM” value amounted to 92.4%.
For the molecule `COCC(O)CONC(=O)c1ccc(F)c(F)c1Nc1ccc(Cl)cc1F` (centres unmarked) [Example 229, 2-(4-Chloro-2-fluoro-phenylamino)-3,4-difluoro-N-(2-hydroxy-3-methoxy-propoxy)-benzamide], in the data set with MEK, the “% Inhibition @ 0.1 μM” value is recorded as 9.8% and the “% Inhibition @ 1 μM” value is recorded as 76.5%.
In the case of `Cc1cc(I)ccc1Nc1c(C(=O)NOCCNc2ccccc2)cc(F)c(F)c1F` [Example 230, 3,4,5-Trifluoro-2-(4-iodo-2-methyl-phenylamino)-N-(2-phenylamino-ethoxy)-benzamide], the negative logarithm of the IC50 (pIC50) with MEK is 7.29.
Still for that read-out and setting: the value for `Cc1cc(I)ccc1Nc1c(C(=O)NOCCNc2ccccc2)cc(Br)c(F)c1F` [Example 231, 5-Bromo-3,4-difluoro-2-(4-iodo-2-methyl-phenylamino)-N-(2-phenylamino-ethoxy)-benzamide] was 7.17; that for `O=C(NOCCNc1ccccc1)c1ccc(F)c(F)c1Nc1ccc(I)cc1Cl` [Example 232, 2-(2-Chloro-4-iodo-phenylamino)-3,4-difluoro-N-(2-phenylamino-ethoxy)-benzamide] was 7.66.
Still for that read-out and setting: the value for `O=C(NOCCNc1ccccc1)c1cc(F)c(F)c(F)c1Nc1ccc(I)cc1Cl` [Example 233, 2-(2-Chloro-4-iodo-phenylamino)-3,4,5-trifluoro-N-(2-phenylamino-ethoxy)-benzamide] was 7.48.
The same measure, in the same setting: then `Cc1cc(I)ccc1Nc1c(C(=O)NOCCNc2ccccc2)ccc(F)c1F` [Example 234, 3,4-Difluoro-2-(4-iodo-2-methyl-phenylamino)-N-(2-phenylamino-ethoxy)-benzamide], with 7.27; and `O=C(NOCCNc1ccccc1)c1cc(Br)c(F)c(F)c1Nc1ccc(I)cc1Cl` [Example 235, 5-Bromo-2-(2-chloro-4-iodo-phenylamino)-3,4-difluoro-N-(2-phenylamino-ethoxy)-benzamide], with 7.21.
